The record followed here is ChEMBL document CHEMBL4732085, “Di-aryl guanidinium derivatives: Towards improved α2-Adrenergic affinity and antagonist activity” (Eur J Med Chem, 2021).

For assay [1], the target named is T1, Adrenergic receptor alpha-2 (Homo sapiens, UniProt P08913+P18825+P18089).
T1 sequence (P08913 whole entry): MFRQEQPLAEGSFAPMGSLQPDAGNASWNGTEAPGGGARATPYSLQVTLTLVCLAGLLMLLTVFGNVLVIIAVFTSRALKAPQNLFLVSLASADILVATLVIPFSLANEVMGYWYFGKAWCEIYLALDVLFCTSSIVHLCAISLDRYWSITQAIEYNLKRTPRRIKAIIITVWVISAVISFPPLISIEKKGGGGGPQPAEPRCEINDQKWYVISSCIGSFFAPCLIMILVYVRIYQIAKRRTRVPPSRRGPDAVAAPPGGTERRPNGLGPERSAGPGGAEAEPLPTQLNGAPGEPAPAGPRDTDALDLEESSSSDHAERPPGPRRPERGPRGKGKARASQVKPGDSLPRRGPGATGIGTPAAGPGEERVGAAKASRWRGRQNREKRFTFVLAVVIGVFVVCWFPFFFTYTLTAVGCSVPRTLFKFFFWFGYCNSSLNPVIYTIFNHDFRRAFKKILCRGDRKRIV
T1 sequence (P18825 whole entry): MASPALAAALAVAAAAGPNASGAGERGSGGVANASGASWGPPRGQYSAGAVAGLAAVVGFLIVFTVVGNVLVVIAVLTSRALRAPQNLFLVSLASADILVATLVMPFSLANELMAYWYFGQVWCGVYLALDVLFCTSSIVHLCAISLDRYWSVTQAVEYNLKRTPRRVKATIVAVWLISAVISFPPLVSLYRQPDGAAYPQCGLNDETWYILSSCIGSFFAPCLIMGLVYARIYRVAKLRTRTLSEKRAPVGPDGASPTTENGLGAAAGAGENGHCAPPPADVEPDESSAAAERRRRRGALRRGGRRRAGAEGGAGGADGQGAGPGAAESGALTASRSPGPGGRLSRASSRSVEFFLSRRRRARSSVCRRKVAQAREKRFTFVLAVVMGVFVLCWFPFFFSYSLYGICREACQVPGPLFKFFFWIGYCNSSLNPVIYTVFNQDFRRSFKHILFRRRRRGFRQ
T1 sequence (P18089 whole entry): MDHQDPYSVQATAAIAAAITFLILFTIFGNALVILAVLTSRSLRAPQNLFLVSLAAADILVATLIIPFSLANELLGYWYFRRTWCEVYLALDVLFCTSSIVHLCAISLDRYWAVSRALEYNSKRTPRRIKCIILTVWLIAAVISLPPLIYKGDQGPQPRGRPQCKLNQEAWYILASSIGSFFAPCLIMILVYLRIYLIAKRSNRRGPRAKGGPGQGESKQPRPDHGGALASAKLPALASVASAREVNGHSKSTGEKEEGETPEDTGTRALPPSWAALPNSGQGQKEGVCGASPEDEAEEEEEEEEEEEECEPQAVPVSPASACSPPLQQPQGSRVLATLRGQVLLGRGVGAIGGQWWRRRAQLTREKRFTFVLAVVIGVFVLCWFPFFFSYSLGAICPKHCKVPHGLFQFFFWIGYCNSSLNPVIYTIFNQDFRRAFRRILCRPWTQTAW
Description: Displacement of [3H]-RX821002 from adrenergic alpha 2 receptor in human brain membrane by liquid scintillation spectroscopy. It is filed as cell membranes. On the technique in general: Displacement assays read how much labelled ligand stays bound in the presence of the test substance.

Assay [2] addresses T2, Adrenergic receptor alpha-2 (Homo sapiens) (UniProt P08913+P18825+P18089). The assay can be described thus: Antagonist activity at adrenergic alpha 2 receptor in human brain membrane assessed as inhibition of UK14304-induced stimulation of [35S]GTPgammaS binding at 10 uM by liquid scintillation spectroscopy (reference value: 153 +/- 4%). It is filed as functional, cell membranes. As to conditions: filed as antagonist. (In general: GTPγS resists hydrolysis and so accumulates on activated G proteins.)

In assay [3] the target is T1, Adrenergic receptor alpha-2. Description: Antagonist activity at adrenergic alpha 2 receptor in human brain membrane assessed as inhibition of UK14304-induced stimulation of [35S]GTPgammaS binding by liquid scintillation spectroscopy (reference value: 1.77 +/- […]). It is filed as functional, cell membranes.
For assay [4] the target is unchanged. Description: Agonist activity at adrenergic alpha 2 receptor in human brain membrane assessed as stimulation of [35S]GTPgammaS binding by liquid scintillation spectroscopy. It is filed as functional, cell membranes.
Assay [5] deals with T2, Adrenergic receptor alpha-2 (Homo sapiens). The assay can be described thus: Agonist activity at adrenergic alpha 2 receptor in human brain membrane assessed as stimulation of [35S]GTPgammaS binding at 10 uM by liquid scintillation spectroscopy relative to control. The note with it: filed as agonist. It is filed as functional, cell membranes.
The target is the same in assay [6]. Description: Agonist activity at adrenergic alpha 2 receptor in human brain membrane assessed as stimulation of [35S]GTPgammaS binding at 10 uM in presence of adrenergic alpha 2 receptor antagonist RX821002 by liquid scintillation spectroscopy. It is filed as functional, cell membranes. The note with it: filed as agonist.
In assay [7] the target is T1, Adrenergic receptor alpha-2. Description: Agonist activity at adrenergic alpha 2 receptor in human brain membrane assessed as stimulation of [35S]GTPgammaS binding in presence of adrenergic alpha 2 receptor antagonist RX821002 by liquid scintillation spectroscopy. It is filed as functional, cell membranes.

In general, Ki refers to the equilibrium dissociation constant of an inhibitor or competing ligand from its target. Higher therefore signals weaker binding. `Cl.Cl.N=C(N)Nc1ccc(Cc2ccc(NC3=NCCN3)nc2)cn1` displayed a Ki in assay [1] of 0.138 µM.

A word on the Emax: it is the maximal effect, on the per cent scale that the assay sets. Broadly, the EC50 is the concentration at which the effect is half-maximal. Turning to `Cl.Cl.N=C(N)Nc1ccc(Cc2ccc(NC3=NCCN3)cc2)cn1`, the Emax in assay [2] came out at 140%. For the same compound, the EC50 in assay [3] stood at 39.9 µM. For the same compound, the Ki in assay [1] amounted to 0.0868 µM.

With `Cl.Cl.N=C(NCc1ccco1)Nc1ccc(Cc2ccc(NC3=NCCN3)cc2)cn1`, the values for the Emax in assay [2], in assay [5] and in assay [6] were 96%, 149% and 154%, respectively. Also, the concentration giving a half-maximal response (EC50) came to 194 µM in assay [4], 52.3 µM in assay [3] and 252 µM in assay [7]. In assay [1], this compound registered a Ki of 0.0339 µM.

For `Cl.Cl.N=C(N)Nc1ccc(Cc2ccc(NC3=NCCN3)nc2)cc1`, the Ki in assay [1] was determined as 0.674 µM.

`Cl.Cl.N=C(NCc1ccco1)Nc1ccc(Cc2ccc(NC(=N)NCc3ccco3)cc2)cc1` registered a Ki in assay [1] of 0.355 µM.

`N=C(N)NC1C=C2CCCCC2=CN1` (stereo unspecified) displayed a Ki in assay [1] of 0.1659 µM.

For `c1cc2c(cc1NC1=NCCN1)CCCC2`, in assay [1], the Ki turned out to be 0.0468 µM.

On to `Cl.Cl.N=C(NCc1ccco1)Nc1ccc(Cc2ccc(NC3=NCCN3)nc2)cn1`, for which, in assay [1], the Ki came out at 0.263 µM.

With `CCCNC(=N)Nc1ccc(Cc2ccc(NC3=NCCN3)cc2)cc1.Cl.Cl`, the Emax in assay [2] was determined as 171%; in assay [5], 139%; in assay [6], 110%. The EC50 was determined as 46 µM in assay [4], 30 µM in assay [3] and 487 µM in assay [7]. The compound also registered an inhibition constant Ki in assay [1] of 0.00082 µM.

On to `COC1(C2=NCCN2)COc2ccccc2O1` (stereo unspecified), for which the Emax in assay [2] was found to be 98%. Also, in assay [3], the EC50 is 87.2 µM.

Regarding `CCCNC(=N)Nc1ccc(Cc2ccc(NC3=NCCN3)cc2)cn1.Cl.Cl`, in assay [2], the Emax came to 122%. Also, the EC50 in assay [3] was found to be 30.8 µM. The Ki in assay [1] amounted to 0.0676 µM.

Compound `CN(C)c1ccc(/N=C(/N)NCc2ccco2)cc1` came in with an inhibition constant (Ki) in assay [1] of 0.2318 µM.

Compound `Cl.Cl.N=C(NCCO)Nc1ccc(Cc2ccc(NC(=N)NCCO)cc2)cc1` had a Ki in assay [1] of 2.485 µM.

With `Cl.Cl.N=C(N)Nc1ccc(Cc2ccc(N=C3NCCN3)cc2)cc1`, the results for the Emax in assay [2], in assay [5] and in assay [6] were 110%, 126% and 122%, respectively. Moreover, the EC50 in assay [4] was 18 µM; in assay [3] it was 20.2 µM; in assay [7], 64020 µM. Moreover, the Ki in assay [1] turned out to be 0.0123 µM.

Regarding `CCCNC(=N)Nc1ccc(Cc2ccc(NC3=NCCN3)nc2)cc1.Cl.Cl`, in assay [2], the Emax was found to be 139%. Besides, the EC50 in assay [3] is 4.14 µM. Further, the Ki in assay [1] was found to be 0.12 µM.

Consider `CCCNC(=N)Nc1ccc(Cc2ccc(NC3=NCCN3)nc2)cn1.Cl.Cl`, for which the Emax in assay [2] was 127%. Further, the EC50 in assay [3] was 10.2 µM. Moreover, the Ki in assay [1] is 0.0899 µM.

`Cl.Cl.N=C(NCc1ccco1)Nc1ccc(Cc2ccc(NC3=NCCN3)cc2)cc1`: the Emax came out at 155% in assay [2], 168% in assay [5] and 130% in assay [6]. Moreover, the EC50 in assay [4] is 534 µM; in assay [3] it was 11.6 µM; in assay [7] it was 2356 µM. The compound further gave a Ki in assay [1] of 0.00177 µM.

As to `CCCNC(=N)Nc1ccc(Cc2ccc(NC(=N)NCCC)cc2)cc1.Cl.Cl`, the Ki in assay [1] worked out at 0.742 µM.

In assay [1], `N=C(N)Nc1ccc2c(c1)CCCC2` gave a Ki of 0.0776 µM.

In assay [1], `Cl.Cl.N=C(NCc1ccco1)Nc1ccc(Cc2ccc(NC3=NCCN3)nc2)cc1` showed a Ki of 0.433 µM.

Compound `Cl.Cl.N=C(N)Nc1ccc(CCc2ccc(N=C3NCCN3)cc2)cc1` yielded a Ki in assay [1] of 0.175 µM.

Compound `CCCNC(=N)Nc1ccc(CCc2ccc(NC3=NCCN3)cc2)cc1.Cl.Cl` yielded a Ki in assay [1] of 1.745 µM.

Turning to `Cl.Cl.N=C(NCc1ccco1)Nc1ccc(CCc2ccc(NC3=NCCN3)cc2)cc1`, the Ki in assay [1] came out at 0.418 µM.
